From patent US9120795B2, “Crystalline form of a β-lactamase inhibitor” (Cubist Pharmaceuticals, Inc., priority 2013, dated 2015)

Columns and labels:
Test in all cases: Standard BLI potentiation MIC assay
[1] = tested on: Eco.2840 (KPC-4, isogenic); assay type: cell-based, Eschericia coli; settings: read-out: MIC of β-lactam with BLI
Protocol: (§1) The experimental protocol was performed according to Clinical and Laboratory Standards Institute (CLSI) guidelines with modifications as described below (CLSI guidelines can be derived from the CLSI document M07-A9 published in January 2012: “Methods for Dilution Antimicrobial Susceptibility Tests for Bacteria That Grow Aerobically; Approved Standard-Ninth Edition”).
(§2) To prepare for MIC testing, frozen glycerol stocks of clinical isolates (Klebsiella pneumoniae, Eschericia coli, Enterobacter spp, Citrobacter spp, or Pseudomonas aeruginosa) were used to streak for isolated colonies on rich, non-selective, tryptic soy agar containing 5% sheep's blood (TSAB). Frozen glycerol stocks of laboratory engineered, isogenic E. coli strains, which contain cloned β-lactamase expressing plasmids were used to streak for isolated colonies on rich, selective LB agar supplemented with 25 μg/mL tetracycline to maintain the plasmid. All strains were incubated at 37° C. for 18-24 hrs.
(§3) On the day of testing, primary cultures were started by scraping off 5-10 colonies from the TSAB plates containing clinical strains or the tetracycline supplemented LB plates containing engineered strains. The clinical strain material was suspended in ˜5 mL of cation adjusted Mueller Hinton Broth (CAMHB) in 14 mL culture tubes. The engineered strain material was suspended in CAMHB (supplemented with 25 μg/mL tetracycline) in 14 mL culture tubes. All strains were incubated at 37° C. with aeration (200 rpm) for ˜2 hrs until the optical density at 600 nm (OD600) was ≧0.1.
(§4) The two compound components of the assay were each diluted in CAMHB and added to the 96-well broth microdilution assay plates. 50 μL of the β-lactam was added to each well of the assay plate in 2-fold dilutions with final concentrations ranging from 128 to 0.13 μg/mL. 25 μL of the BLI compound was added to all wells in the broth microdilution plates at a final concentration of 4 μg/mL. Inoculum cultures were prepared by standardizing the primary cultures to OD600=0.1 and then adding 20 μL of the adjusted primary culture per 1 mL CAMHB for clinical strains or CAMHB (supplemented with tetracycline at 100 μg/mL) for engineered strains, so that the final inoculum density was ˜10^5 colony forming units per milliliter. Diluted inoculum cultures were used to inoculate 25 μL per well in 96-well broth microdilution assay plates. The final volume of each well was 100 μL and contained a β-lactam at different concentrations, a BLlcompound at 4 μg/mL concentration, the bacterial culture at an OD600 of approximately 0.001 and when necessary tetracycline at 25 μg/mL.
(§5) Plates were incubated for 18-20 hours at 37° C. with aeration (200 rpm). Following incubation, growth was confirmed visually placing plates over a viewing apparatus (stand with a mirror underneath) and then OD600 was measured using a SpectraMax 340PC384 plate reader (Molecular Devices, Sunnyvale, Calif.). Growth was defined as turbidity that could be detected with the naked eye or achieving minimum OD600 of 0.1. MIC values were defined as the lowest concentration producing no visible turbidity.

[2] = tested on: Eco.2902 (Aba-ADC-33, isogenic); assay type: cell-based, Eschericia coli; settings: read-out: MIC of β-lactam with BLI
Protocol: as §1, §2, §3, §4, §5

[3] = tested on: Eco.2845 (OXA-15, isogenic); assay type: cell-based, Eschericia coli; settings: read-out: MIC of β-lactam with BLI
Protocol: as §1, §2, §3, §4, §5

[4] = tested on: Eco.2843 (DHA-1, isogenic); assay type: cell-based, Eschericia coli; settings: read-out: MIC of β-lactam with BLI
Protocol: as §1, §2, §3, §4, §5

[5] = tested on: Eco.2806 (KPC-2, isogenic); assay type: cell-based, Eschericia coli; settings: read-out: MIC of β-lactam with BLI
Protocol: as §1, §2, §3, §4, §5

Eco.2711 (KPC, clinical) = assay type: cell-based, Eschericia coli; settings: read-out: MIC of β-lactam with BLI
Protocol: as §1, §2, §3, §4, §5

[6] = tested on: Eco.2781 (KPC-2, TEM+, clinical); assay type: cell-based, Eschericia coli; settings: read-out: MIC of β-lactam with BLI
Protocol: as §1, §2, §3, §4, §5

[7] = tested on: Kpn.2918 (KPC-3, SHV+, TEM+, clinical); assay type: cell-based; settings: Klebsiella pneumoniae, read-out: MIC of β-lactam with BLI
Protocol: as §1, §2, §3, §4, §5

[8] = tested on: Kpn.2783 (CTX-M-15, SHV+, TEM+, clinical); assay type: cell-based; settings: Klebsiella pneumoniae, read-out: MIC of β-lactam with BLI
Protocol: as §1, §2, §3, §4, §5

[9] = tested on: Kpn.2490 (KPC-3, SHV+, TEM+, clinical); assay type: cell-based; settings: Klebsiella pneumoniae, read-out: MIC of β-lactam with BLI
Protocol: as §1, §2, §3, §4, §5

[10] = tested on: Pae.2757 (AmpC over-expn, clinical); assay type: cell-based; settings: Pseudomonas aeruginosa, read-out: MIC of β-lactam with BLI
Protocol: as §1, §2, §3, §4, §5

[11] = tested on: Kpn.2917 (KPC-2, SHV+, clinical); assay type: cell-based; settings: Klebsiella pneumoniae, read-out: MIC of β-lactam with BLI
Protocol: as §1, §2, §3, §4, §5

[12] = tested on: Kpn.2926 (CTX-M-15, OXA-48, clinical); assay type: cell-based; settings: Klebsiella pneumoniae, read-out: MIC of β-lactam with BLI
Protocol: as §1, §2, §3, §4, §5

[13] = tested on: Kpn.2478 (KPC-2, TEM+, clinical); assay type: cell-based; settings: Klebsiella pneumoniae, read-out: MIC of β-lactam with BLI
Protocol: as §1, §2, §3, §4, §5

[14] = tested on: Kpn.2909 (KPC-3, SHV+, TEM+, clinical); assay type: cell-based; settings: Klebsiella pneumoniae, read-out: MIC of β-lactam with BLI
Protocol: as §1, §2, §3, §4, §5

[15] = tested on: Pae.2885 (AmpC, clinical); assay type: cell-based; settings: Pseudomonas aeruginosa, read-out: MIC of β-lactam with BLI
Protocol: as §1, §2, §3, §4, §5

[16] = tested on: Kpn.571 (TEM-26, clinical); assay type: cell-based; settings: Klebsiella pneumoniae, read-out: MIC of β-lactam with BLI
Protocol: as §1, §2, §3, §4, §5

[17] = tested on: Pae.2863 (AmpC de-repress, clinical); assay type: cell-based; settings: Pseudomonas aeruginosa, read-out: MIC of β-lactam with BLI
Protocol: as §1, §2, §3, §4, §5

[18] = tested on: Kpn.2913 (KPC-2, SHV+, clinical); assay type: cell-based; settings: Klebsiella pneumoniae, read-out: MIC of β-lactam with BLI
Protocol: as §1, §2, §3, §4, §5

[19] = tested on: Kpn.2914 (KPC-2, SHV+, clinical); assay type: cell-based; settings: Klebsiella pneumoniae, read-out: MIC of β-lactam with BLI
Protocol: as §1, §2, §3, §4, §5

[20] = tested on: Pae.2808 (KPC-2, clinical); assay type: cell-based; settings: Pseudomonas aeruginosa, read-out: MIC of β-lactam with BLI
Protocol: as §1, §2, §3, §4, §5

**Q.** For `O=C1N2C[C@@H](CC[C@H]2c2nnco2)N1OS(=O)(=O)[O-].[Na+]` [Hydrate 1, sodium (2S,5R)-2-(1,3,4-oxadiazol-2-yl)-7-oxo-1,6-diazabicyclo[3.2.1]octan-6-yl sulfate], which MIC [1] is on record?
**A.** The MIC was 1 to 2 µg/mL.

**Q.** And the MIC [2]?
**A.** The MIC was 1 to 2 µg/mL.

**Q.** What about the MIC [3] of the same molecule?
**A.** The MIC was 1 to 2 µg/mL.

**Q.** And the MIC [4]?
**A.** Its MIC is 0.25 to 0.5 µg/mL.

**Q.** And the MIC [5]?
**A.** The MIC was 0.25 to 0.5 µg/mL.

**Q.** And the MIC (Eco.2711 (KPC, clinical))?
**A.** The MIC was 0.25 to 0.5 µg/mL.

**Q.** What about the MIC [6] of the same molecule?
**A.** Its MIC is 0.25 to 0.5 µg/mL.

**Q.** What about the MIC [7] of the same molecule?
**A.** The MIC was 1 to 2 µg/mL.

**Q.** And the MIC [8]?
**A.** The MIC was 0.25 to 0.5 µg/mL.

**Q.** And the MIC [9]?
**A.** The MIC was 0.25 to 0.5 µg/mL.

**Q.** What about the MIC [10] of the same molecule?
**A.** The MIC was 1 to 2 µg/mL.

**Q.** What about the MIC [11] of the same molecule?
**A.** Its MIC is 0.25 to 0.5 µg/mL.

**Q.** What about the MIC [12] of the same molecule?
**A.** The MIC was 1 to 2 µg/mL.

**Q.** What about the MIC [13] of the same molecule?
**A.** The MIC was 4 to 8 µg/mL.

**Q.** And the MIC [14]?
**A.** The MIC was 1 to 2 µg/mL.

**Q.** And the MIC [15]?
**A.** Its MIC is 0.25 to 0.5 µg/mL.

**Q.** And the MIC [16]?
**A.** The MIC was 0.25 to 0.5 µg/mL.

**Q.** What about the MIC [17] of the same molecule?
**A.** The MIC was 1 to 2 µg/mL.

**Q.** And the MIC [18]?
**A.** The MIC was 0.25 to 0.5 µg/mL.

**Q.** And the MIC [19]?
**A.** The MIC was 1 to 2 µg/mL.

**Q.** What about the MIC [20] of the same molecule?
**A.** The MIC was 4 to 8 µg/mL.
